{
  "source": "patent US10112943B2",
  "about": "“Substituted imidazoles as gamma secretase modulators” (Janssen Pharmaceutica NV, priority 2012, dated 2018)",
  "parameters_in_all_cases": "species or system mouse",
  "settings_in_all_cases": "dose 30 mg/kg oral dosing, soluble fraction, untreated animals (Ctrl) set at 100, typical protocol 4 h after dose",
  "key": {"Aβ42": {"test_system": "Aβ42", "experiment": "In vivo efficacy: brain levels of soluble Aβ42 in non-transgenic rodents (MSD electrochemiluminescence)", "from_the_text": "(§1) To determine whether acute administration of an Aβ42 lowering agent would reduce Aβ42 levels in vivo, non-transgenic rodents, e.g. mice or rats were used. Animals treated with the Aβ42 lowering agent were examined and compared to those untreated or treated with vehicle and brain levels of soluble Aβ42, Aβ40, Aβ38, and Aβ37 were quantitated by Meso Scale Discovery's (MSD) electrochemiluminescence detection technology. Treatment periods varied from hours (h) to days and were adjusted based on the results of the Aβ42 lowering once a time course of onset of effect could be established.\n(§2) A typical protocol for measuring Aβ42 lowering in vivo is shown but it is only one of many variations that could be used to optimize the levels of detectable Aβ. […] After 4 h, the animals were sacrificed and Aβ42 levels were analysed.\n(§3) Blood was collected by decapitation and exsanguinations in EDTA-treated collection tubes. […] The left hemisphere was stored at −18° C. for quantitative analysis of test compound levels. […]\n(§4) Mouse brains from non-transgenic animals were resuspended in 8 volumes of 0.4% DEA (diethylamine)/50 mM NaCl containing protease inhibitors (Roche-11873580001 or 04693159001) per gram of tissue, e.g. for 0.158 g brain, add 1.264 ml of 0.4% DEA. […] Nine parts of supernatant were neutralized with 1 part 0.5 M Tris-HCl pH 6.8 and used to quantify Aβ. […]"}, "Aβ38": {"test_system": "Aβ38", "experiment": "In vivo efficacy: brain levels of soluble Aβ38 in non-transgenic rodents (MSD electrochemiluminescence)", "from_the_text": "as §1, with “Aβ38 increasing agents” for “Aβ42 lowering agent”, “increase Aβ38” for “reduce Aβ42”, “MSD” for “Meso Scale Discovery's (MSD)”, “Aβ38 increase” for “Aβ42 lowering”\nA typical protocol for measuring Aβ38 increase in vivo is shown but it is only one of many variations that could be used to optimize the levels of detectable Aβ. […] After 4 h, the animals were sacrificed and Aβ38 levels were analysed.\nas §3, §4"}, "Aβ40": {"test_system": "Aβ40", "experiment": "In vivo efficacy: brain levels of soluble Aβ40 in non-transgenic rodents (MSD electrochemiluminescence)", "from_the_text": "as §1, §2, §3, §4"}},
  "data": [
    {"compound": "Cc1cn(-c2ccc3n(c2=O)C[C@@H]2CC[C@@H](Cc4cc(C(F)(F)F)cc(C(F)(F)F)c4)N2C3=O)cn1", "note": "(single isomer, unassigned) [Compound 4, 3-[[3,5-bis(trifluoromethyl)phenyl]methyl]-2,3,11,11a-tetrahydro-8-(4-methyl-1H-imidazol-1-yl)-1H-pyrido[1,2-a]pyrrolo[1,2-d]pyrazine-5,9-dione ((3S, 11aS) or (3R, 11aR))]", "values": [
      {"measurement": "Aβ42 (% vs Ctrl) _Mean", "setting": "Aβ42", "value": 47, "unit": "% vs Ctrl"},
      {"measurement": "Aβ38 (% vs Ctrl) _Mean", "setting": "Aβ38", "value": 136, "unit": "% vs Ctrl"},
      {"measurement": "Aβ40 (% vs Ctrl) _Mean", "setting": "Aβ40", "value": 69, "unit": "% vs Ctrl"}
    ]}
  ]
}
